Data set [1] in a line: in vitro. Particulars: human.
Protocol: (§3) The Caco-2 permeability studies were performed as follows. (i) For the preparation of Caco cells, 50-μl and 25-ml volumes of cell culture medium were added to each well of the Transwell insert and reservoir, respectively. The HTS Transwell plates then were incubated at 37°C, 5% CO2 for 1 h before cell seeding. […] (ii) For the preparation of stock solutions, 10 mM stock solutions of test compounds were prepared in DMSO. The stock solutions of positive controls were prepared in DMSO at a concentration of 10 mM. Digoxin and propranolol were used as control compounds in this assay. (iii) For the assessment of cell monolayer integrity, medium was removed from the reservoir and each Transwell insert and replaced with prewarmed fresh culture medium. Transepithelial electrical resistance (TEER) across the monolayer was measured using a Millicell epithelial volt-Ohm measuring system (Millipore, USA). The plate was returned to the incubator once the measurement was done. The TEER value was calculated according to the following equation: TEER measurement (ohms) × area of membrane (cm^2) = TEER value (ohm · cm^2). The TEER value should be greater than 230 Ω · cm^2, which indicates a well-qualified Caco-2 monolayer. (iv) The assay was performed as follows. The Caco-2 plate was removed from the incubator and washed twice with prewarmed Hanks' balanced salt solution (HBSS; with 10 mM HEPES, pH 7.4) and then incubated at 37°C for 30 min. The stock solutions of control compounds were diluted in DMSO to get 1 mM solutions and then diluted with HBSS (10 mM HEPES, pH 7.4) to get 5 μM working solutions. The stock solutions of the test compounds were diluted in DMSO to get 1 mM solutions and then diluted with HBSS (10 mM HEPES, pH 7.4) to get 5 μM working solutions. The final concentration of DMSO in the incubation system was 0.5%. To determine the rate of drug transport in the apical to basolateral direction, 75 μl of 5 μM working solution of test compound was added to the Transwell insert (apical compartment), and the wells in the receiver plate (basolateral compartment) were filled with 235 μl of HBSS (10 mM HEPES, pH 7.4). To determine the rate of drug transport in the basolateral to apical direction, 235 μl of 5 μM working solution of test compound was added to the receiver plate wells (basolateral compartment), and then the Transwell inserts (apical compartment) were filled with 75 μl of HBSS (10 mM HEPES, pH 7.4). Time zero samples were prepared by transferring 50 μl of 5 μM working solution to wells of the 96-deep-well plate, followed by the addition of 200 μl cold acetonitrile or methanol containing appropriate IS. The plates were incubated at 37°C for 2 h. At the end of the incubation, 50-μl samples from donor sides (apical compartment for AP→BL flux and basolateral compartment for BL→AP) and receiver sides (basolateral compartment for AP→BL flux and apical compartment for BL→AP) were transferred to wells of a new 96-well plate, followed by the addition of 4 volumes of cold acetonitrile or methanol containing appropriate IS. […] An aliquot of 100 μl of the supernatant was mixed with an appropriate volume of ultrapure water before LC-MS/MS analysis. To determine the Lucifer yellow leakage after a 2-h transport period, a stock solution of Lucifer yellow was prepared in ultrapure water and diluted with HBSS (10 mM HEPES, pH 7.4) to reach a final concentration of 100 μM. One hundred microliters of the Lucifer yellow solution was added to each Transwell insert (apical compartment), followed by filling the wells in the receiver plate (basolateral compartment) with 300 μl of HBSS (10 mM HEPES, pH 7.4). The plates were incubated at 37°C for 30 min, and 80-μl samples were removed directly from the apical and basolateral wells (using the basolateral access holes) and transferred to wells of new 96-well plates.
Data set [2] has as its system Cryptococcus neoformans H99. Description: Synergistic assay (FIC), CN. In kind it is cell-based. As to the method: (§1) Synergistic activity was assayed by calculating the fractional inhibitory index (FIC). Briefly, in a 96-well plate, drug A (D13) was serially diluted from 16 to 0.015 μg/ml (11 dilutions), whereas drug B (either fluconazole, amphotericin B, caspofungin, itraconazole, or voriconazole) was serially diluted from 12 to 0.19 μg/ml for fluconazole, 5 to 0.078 μg/ml for amphotericin B, or 8 to 0.007 μg/ml for caspofungin, itraconazole, or voriconazole (seven dilutions). The FIC was defined as (MIC combined/MIC drug A alone) + (MIC combined/MIC drug B alone). Synergism was categorized with the following scale: strongly synergistic effect, FIC of <0.5; synergistic effect, FIC of <1; additive effect, FIC of 1; no effect, FIC between 1 and 2; antagonistic effect, FIC of >2.

A short description of data set [3]: in vitro. Particulars: monkey.
Description: A commercially available kit was used to examine permeability through the blood-brain barrier (BBB kit MBT-24; Pharmaco Cell Co. Ltd.). This kit allows us to perform a permeability assay using an in vitro reproduction of the blood-brain barrier using monkey brain. Briefly, in a 12-well plate there is a triple culture, with endothelial cells in the luminal part and perycites and astrocytes in the abluminal side connected by tight junctions. The luminal side of the well represents the blood side, whereas the abluminal side represents the brain side. The integrity of the blood-brain barrier is assessed by the measurement of TEER, which indicates the formation of tight junctions. To have an efficient system, the TEER should be >150 Ω cm^2. The kit is kept frozen at −80°C until it is ready to use. […] After that it takes 3 days for the cells to adjust, and then the plate can be used in 4 days for the experiment. For drug testing, after assessing the TEER, the drugs were added in the chosen medium at the desired concentrations and at different time points. At the end of each time point the TEER was measured to assess if the BBB was still intact. After that the medium was collected and subjected to MS to measure the concentration of the samples in the brain side and calculate the permeability value (Papp).
A further data set can be described thus: Caco-2 permeability. As to conditions: human.
The test system of data set [4] is C. neoformans. Description: In vitro susceptibility testing (MIC80). In kind it is cell-based, Cryptococcus neoformans. As to the method: MICs were determined by following the methods of the Clinical and Laboratory Standards Institute (CLSI), with modifications. […] The compounds were serially diluted from 32 to 0.03 μg/ml in a 96-well plate. The inoculum was prepared as described in CLSI protocol M27A3 guidelines ([39]). […] The MICs were determined as the lowest concentration of the compound that inhibited 80% of growth compared to the control.

In the next data set the test system is J774. Briefly: In vitro toxicity (MTT), J774. Particulars: Mus musculus, cytotoxicity. In kind it is cell-based, murine. As to the method:
(§2) The murine macrophage cell line J774 and human cancer cell lines A549 and HepG2 were maintained in DMEM containing 10% fetal bovine serum (FBS) and 1% penicillin-streptomycin. At passage 7, 10^5 cells/well in DMEM containing 10% FBS were transferred into 96-well plates and cultured for 14 h for the cells to adhere to the wells. The compounds were added to the cells at concentrations ranging from 0.03 to 128 μg/ml. The wells without the compound served as controls. […] After 24 or 48 h, the supernatant was removed and 50 μl of 5-mg/ml 3-(4,5-dimethylthiazol-2-yl)-2,5-diphenyltetrazoliumbromide (MTT) solution in phosphate-buffered saline (PBS) was added to each well. The plates were incubated for an additional 4 h. The formazan crystal formed inside the cell was dissolved by adding 50 μl of dimethyl sulfoxide (DMSO). The optical density was measured at 570 nm.

The test system of the next data set is A549. Description: In vitro toxicity (MTT), A549. In kind it is cell-based. Particulars: Homo sapiens, cytotoxicity. As to the method: as §2
A further data set deals with HepG2. Briefly: In vitro toxicity (MTT), HepG2. In kind it is cell-based. As to conditions: Homo sapiens, cytotoxicity. As to the method:
as §2

The subject of data set [5] is C. neoformans. Briefly: In vitro killing assay. Particulars: for K100*: minimum concentration that kills 100% of C. neoformans cells in 48 h.
Protocol: C. neoformans cells from a culture grown overnight were washed in PBS and resuspended in YNB buffered with HEPES at pH 7.4. The cells were counted, and 2 × 10^4 cells were incubated with different concentrations of the drugs in a final volume of 10 ml with a final concentration of 0.5% DMSO. The tubes were then incubated at 37°C with 5% CO2 on a rotary shaker at 200 rpm. Aliquots were taken at the time points indicated and diluted, and 100-µl portions were plated onto YPD plates.
In the next data set the test system is Candida albicans A39. Description: Synergistic assay (FIC), CA. In kind it is cell-based. The protocol: as §1
The test system of a further data set is Candida albicans 3022. Briefly: Synergistic assay (FIC), CA Flu-R. In kind it is cell-based. As to conditions: Candida albicans, 3022; CA Flu-R. The protocol:
as §1

In the next data set the test system is Candida krusei. Description: Synergistic assay (FIC), CK Flu R1. The format is cell-based. Particulars: Pichia kudriavzevii. As to the method:
as §1

The subject of the next data set is Candida krusei ATCC 6258. Briefly: Synergistic assay (FIC), CK Flu R2. As to conditions: Pichia kudriavzevii, ATCC6258. The format is cell-based. The protocol: as §1
The test system of data set [6] is Aspergillus fumigatus 293. Briefly: Synergistic assay (FIC), AF. In kind it is cell-based. The protocol: as §1
The subject of data set [7] is C. neoformans. Briefly: Mouse model of cryptococcosis. In kind it is in vivo, mice.
The next data set relates to C. albicans. Description: Mouse model of invasive candidiasis. In kind it is in vivo, mice. As to conditions: oral gavage 20 mg/kg/day.
A further data set deals with Aspergillus fumigatus. Description: Mouse model of invasive pulmonary aspergillosis. The format is in vivo, mice. Particulars: oral 20 mg/kg/day. The protocol: For survival study, 8-week-old CBA/J (Envigo) male mice were used. They were divided into sets of 10 mice for each treatment or control group. The day prior to infection, the mice were immunosuppressed by using triamcinolone acetonide (1 mg/mouse) subcutaneously ([40]). On day 0, mice were infected intranasally with 20 μl of a suspension containing 2 × 10^4 conidia of A. fumigatus strain Af293 and were treated through gavage with 20 mg/kg/day of BHBM, D13, or voriconazole (as a drug control) in a final volume of 100 μl of 30% PEG in saline buffer. The untreated control group mice received 100 μl of 30% PEG in saline buffer. Mice were fed ad libitum and were given 50% grapefruit juice in place of normal drinking water to avoid the liver metabolism of the drugs ([41]). Mice were monitored every day for discomfort and sacrificed subsequently.

Setting [8] is: Cryptococcus neoformans, ChemBridge compounds, Supplementary Table 1, read-out: MIC80.
Where [9] appears, read: lowest concentration inhibiting 80% of growth.

Data on 10 compounds can be found in publication PMC5923120, “Acylhydrazones as Antifungal Agents Targeting the Synthesis of Fungal Sphingolipids” (Antimicrobial Agents and Chemotherapy, 2018).

Values after ≈ are worked out from the molar mass of the structure shown. Where two headings read alike, the source gives them in different places.

Protocol for Caco-2 permeability: as §3

Usually Papp A→B stands for how fast a substance crosses the layer from the apical side. In general, Papp B→A refers to the apparent permeability from the basolateral to the apical side of a cell layer. As a reminder, the efflux ratio is the permeability from basolateral to apical divided by that in the opposite direction, in the common usage. On to `CC(C)NCC(O)COc1cccc2ccccc12` (stereo not shown) [Propranolol], for which, in “in vitro [1]” (Caco-2, pH 7.4), the apparent permeability from apical to basolateral (Papp A→B) at 2 h, 5 μM amounted to 34.4 ×10⁻⁶ cm/s; the basolateral-to-apical permeability (Papp B→A) at 2 h, 5 μM turned out to be 19.5 ×10⁻⁶ cm/s; the efflux ratio at 2 h, 5 μM is 0.57. The compound further registered a recovery at 2 h, 5 μM in “in vitro [1]” (Caco-2, pH 7.4, Recovery AP→BL) of 90.7%. In the data set “in vitro [1]” (Caco-2, pH 7.4, Recovery BL→AP), this compound yielded a recovery at 2 h, 5 μM of 95.5%.
What is called MIC is the lowest concentration that inhibits growth of the organism. Turning to `C[C@@H]1[C@H](O)[C@@H](C)/C=C/C=C/C=C/C=C/C=C/C=C/C=C/[C@H](O[C@@H]2O[C@H](C)[C@@H](O)[C@H](N)[C@@H]2O)C[C@@H]2O[C@](O)(C[C@@H](O)C[C@@H](O)[C@H](O)CC[C@@H](O)C[C@@H](O)CC(=O)O[C@H]1C)C[C@H](O)[C@H]2C(=O)O` [AB, amphotericin B], the MIC in data set [2] amounted to 0.25 µg/mL.
As a reminder, the Papp is a coefficient for how fast a substance crosses the barrier. Take `Cn1c(=O)c2c(ncn2C)n(C)c1=O` [Caffeine, reference compound]: in the data set “in vitro [3]”, the apparent permeability (Papp) at 5 min is 20 ×10⁻⁶ cm/s, the Papp at 15 min was 25 ×10⁻⁶ cm/s and the apparent permeability (Papp) at 30 min is 25 ×10⁻⁶ cm/s.
As to `C[C@H]1O[C@@H](O[C@H]2[C@@H](O)C[C@H](O[C@H]3[C@@H](O)C[C@H](O[C@H]4CC[C@@]5(C)[C@H](CC[C@@H]6[C@@H]5C[C@@H](O)[C@]5(C)[C@@H](C7=CC(=O)OC7)CC[C@]65O)C4)O[C@@H]3C)O[C@@H]2C)C[C@H](O)[C@@H]1O` [Digoxin, reference compound], the apical-to-basolateral permeability (Papp A→B) at 2 h, 5 μM in “Caco-2 permeability” (Caco-2, pH 7.4) was 0.61 ×10⁻⁶ cm/s. The Papp B→A at 2 h, 5 μM in “Caco-2 permeability” (Caco-2, pH 7.4) came out at 20.2 ×10⁻⁶ cm/s. Moreover, in “Caco-2 permeability” (Caco-2, pH 7.4, Efflux ratio), the efflux ratio at 2 h, 5 μM stood at 33.2. Moreover, the recovery at 2 h, 5 μM in “Caco-2 permeability” (Caco-2, pH 7.4, Recovery AP→BL) worked out at 82.7%; in “Caco-2 permeability” (Caco-2, pH 7.4, Recovery BL→AP) it was 95.6%.
The MIC80 is an inhibitory concentration at the 80% level, which refers to growth in some studies and to a panel of isolates in others. The IC50 is the concentration that gives 50% inhibition. Regarding `O=C(N/N=C/c1cc(Br)ccc1O)c1cc(Br)cc(Br)c1O` [D17], the MIC80 in the data set on C. neoformans [4] (setting [8]) and in the data set on C. neoformans [4] (setting [9]) was 0.5 µg/mL (≈ 1.01 µM) in each case. For the same compound, the half-inhibitory concentration (IC50) in the data set on J774, in the data set on A549 and in the data set with HepG2 was 16 µg/mL (≈ 32.5 µM) each time. Besides, the “K100*” value in the data set with C. neoformans [5] is 0.5 µg/mL. Moreover, the “time to kill C. neoformans” value with C. neoformans [5] (time-kill assay) is given as 6 h.
With `CCC(C)n1ncn(-c2ccc(N3CCN(c4ccc(OCC5COC(Cn6cncn6)(c6ccc(Cl)cc6Cl)O5)cc4)CC3)cc2)c1=O` (stereo not shown) [Itra, itraconazole], the MIC in the data set with Candida albicans A39 was 0.06 µg/mL; in the data set with Candida albicans 3022, 2 µg/mL; in the data set on Candida krusei, 1 µg/mL; in the data set with Candida krusei ATCC 6258, 1 µg/mL; in [2], 0.06 µg/mL; in data set [6] it was 0.25 µg/mL.
`CC[C@H](C)C[C@H](C)CCCCCCCCC(=O)N[C@H]1C[C@@H](O)[C@@H](NCCN)NC(=O)[C@@H]2[C@@H](O)CCN2C(=O)[C@H]([C@H](O)CCN)NC(=O)[C@H]([C@H](O)[C@@H](O)c2ccc(O)cc2)NC(=O)[C@@H]2C[C@@H](O)CN2C(=O)[C@H]([C@@H](C)O)NC1=O` [Caspo, capsofungin]: the minimum inhibitory concentration (MIC) stood at 0.12 µg/mL in the data set with Candida albicans A39, 0.06 µg/mL in the data set with Candida albicans 3022, 1 µg/mL in the data set on Candida krusei and 1 µg/mL in the data set on Candida krusei ATCC 6258.
For `OC(Cn1cncn1)(Cn1cncn1)c1ccc(F)cc1F` [fluconazole], the minimum inhibitory concentration (MIC) was 2.5 µg/mL in the data set with Candida albicans A39; above 16 µg/mL with Candida albicans 3022; 16 µg/mL in the data set on Candida krusei; above 16 µg/mL with Candida krusei ATCC 6258; 2.5 µg/mL in data set [2]; above 10 µg/mL in [6]. Also, in the data set on C. neoformans [7] (i.p. 1.2 mg/kg/day, treatment immediately after intranasal infection, 40 days), the mice that survived is 60%. Further, the “mice that survived until the end of the experiment” value is given as 20% in the data set on C. neoformans [7] (i.p. 1.2 mg/kg/day, treatment started 5 days after infection) and 20% with C. neoformans [7] (oral 20 mg/kg/day starting the day of infection). Besides, the “CFU in brains and lungs” value in the data set with C. neoformans [7] (oral 20 mg/kg/day, 32 days posttreatment, data not shown) was “numerous colonies in the lungs and brain”. Further, in the data set with C. albicans, the “time within which mice died” value is at most 12 days.
`C[C@@H](c1ncncc1F)[C@](O)(Cn1cncn1)c1ccc(F)cc1F` [voriconazole, reference compound]: the figures for the minimal inhibitory concentration (MIC) in data set [2] and in data set [6] were 4 µg/mL and 1 µg/mL, respectively. For the same compound, the “lung fungal burden (CFU) of surviving mice” value in the data set with Aspergillus fumigatus (at the endpoint, data not shown) is on record as “showed evidence of colonies”. For the same compound, the mice that survived in the data set on Aspergillus fumigatus (immunosuppressed mice, after 15 days) is given as 40%.
Take `O=C(N/N=C/c1cc(Br)ccc1O)c1cccc(Br)c1` [D2]: the MIC80 in the data set with C. neoformans [4] (setting [8]) and against C. neoformans [4] (setting [9]) was 0.25 µg/mL (≈ 0.628 µM) each time. Also, the IC50 with J774, in the data set on A549 and in the data set on HepG2 was 16 µg/mL (≈ 40.2 µM) in each case. In the data set with C. neoformans [5], the “K100*” value amounted to 0.12 µg/mL.
